Measurements as given in US12312359B2 (Vitae Pharmaceuticals, LLC, priority 2016, dated 2025).
pEC50, pIC50: −log10 of the molar value.

What was measured:
[1] = target: T1, biotinylated wild-type menin and MLL-AF9 fusion protein (menin/MLL binding) (Homo sapiens, UniProt O00255); assay: Assay 1: menin/MLL binding AlphaLISA assay, wild-type menin; settings: Table 30; column head does not say wild-type or mutated menin
T1 construct: made in house; host or cells: menin: E. coli; MLL-AF9-FLAG: HEK293 cells, used as cleared lysate
T1 sequence (O00255 1-610): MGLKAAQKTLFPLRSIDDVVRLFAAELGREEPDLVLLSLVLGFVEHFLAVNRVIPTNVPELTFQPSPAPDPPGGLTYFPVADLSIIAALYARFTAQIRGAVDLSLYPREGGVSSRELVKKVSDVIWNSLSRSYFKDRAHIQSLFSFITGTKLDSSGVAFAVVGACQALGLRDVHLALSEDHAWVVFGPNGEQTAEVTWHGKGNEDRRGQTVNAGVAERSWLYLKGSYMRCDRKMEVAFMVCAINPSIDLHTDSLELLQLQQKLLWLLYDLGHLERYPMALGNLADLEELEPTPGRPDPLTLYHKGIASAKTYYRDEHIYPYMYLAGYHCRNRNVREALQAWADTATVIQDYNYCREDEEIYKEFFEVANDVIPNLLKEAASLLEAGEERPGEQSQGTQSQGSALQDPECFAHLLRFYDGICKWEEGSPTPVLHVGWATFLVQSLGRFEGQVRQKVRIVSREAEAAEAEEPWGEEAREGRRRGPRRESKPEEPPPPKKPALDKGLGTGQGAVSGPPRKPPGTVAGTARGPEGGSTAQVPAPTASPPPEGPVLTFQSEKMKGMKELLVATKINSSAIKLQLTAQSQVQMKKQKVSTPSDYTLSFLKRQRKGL
Outline: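 Compound was preincubated 30 min at room temperature with biotinylated menin (5 nM) and MLL-AF9-FLAG lysate from HEK293 cells, pH 7.4 buffer with 5% DMSO and DTT. Bead-based Alpha signal after 60 min with streptavidin donor and anti-FLAG acceptor beads; four-parameter logistic fit gave IC50.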

[2] = system: human acute monocytic leukemia cell line MV-4-11; assay: Assay 2: cell proliferation assay (ATP quantitation, CellTiter-Glo), MV-4-11; format: cell-based; settings: MV-4-11 cells
Outline: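 MV-4-11 cells, 1.67×10^4 per well in medium with 10% FBS, were exposed to compound for 72 h at 37° C., 5% CO2; HL-60 cells served as toxicity control. Proliferation read as ATP content by CellTiter-Glo luminescence.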

pIC50 [1]	pEC50 ([2]; Homo sapiens, MV4-11, 72 h)	pEC50 ([2]; 72 h)	Structure (SMILES)
> 7.00	6.00 to 7.00		CC(C)c1ncncc1-c1cc(F)ccc1Oc1cncnc1N1CC2(CC(NC3CCC(C)(C#N)CC3)C2)C1 (single isomer, unassigned) [Example 148A, 4-((2-(5-(4-fluoro-2-(4-isopropylpyrimidin-5-yl)phenoxy)pyrimidin-4-yl)-2-azaspiro[3.3]heptan-6-yl)amino)-1-methylcyclohexane carbonitrile]
> 7.00		6.00 to 7.00	CC(C)c1ncncc1-c1cc(F)ccc1Oc1cncnc1N1CC2(CC(NC3CCC(C)(C#N)CC3)C2)C1 (single isomer, unassigned) [Example 148B, 4-((2-(5-(4-fluoro-2-(4-isopropylpyrimidin-5-yl)phenoxy)pyrimidin-4-yl)-2-azaspiro[3.3]heptan-6-yl)amino)-1-methylcyclohexane carbonitrile]
> 7.00	> 7.00		CC(C)c1ncncc1-c1cc(F)ccc1Oc1cncnc1N1CCC2(CCN(Cc3ccc4[nH]c(=O)[nH]c4c3)C2)C1 (single isomer, unassigned) [Example 160A, 5-((7-(5-(4-fluoro-2-(4-isopropylpyrimidin-5-yl)phenoxy)pyrimidin-4-yl)-2,7-diazaspiro[4.4]nonan-2-yl)methyl)-1,3-dihydro-2H-benzo[d]imidazol-2-one]
> 7.00		> 7.00	CC(C)c1ncncc1-c1cc(F)ccc1Oc1cncnc1N1CCC2(CCN(Cc3ccc4[nH]c(=O)[nH]c4c3)C2)C1 (single isomer, unassigned) [Example 160B, 5-((7-(5-(4-fluoro-2-(4-isopropylpyrimidin-5-yl)phenoxy)pyrimidin-4-yl)-2,7-diazaspiro[4.4]nonan-2-yl)methyl)-1,3-dihydro-2H-benzo[d]imidazol-2-one]
> 7.00	> 7.00		CC(C)N(C)C(=O)c1cc(F)ccc1Oc1cncnc1N1CCC2(CCN(Cc3ccc4[nH]c(=O)[nH]c4c3)C2)C1 (single isomer, unassigned) [Example 183A, 5-fluoro-N-isopropyl-N-methyl-2-((4-(7-((2-oxo-2,3-dihydro-1H-benzo[d]imidazol-5-yl)methyl)-2,7-diazaspiro[4.4]nonan-2-yl)pyrimidin-5-yl)oxy)benzamide]
> 7.00		> 7.00	CC(C)N(C)C(=O)c1cc(F)ccc1Oc1cncnc1N1CCC2(CCN(Cc3ccc4[nH]c(=O)[nH]c4c3)C2)C1 (single isomer, unassigned) [Example 183B, 5-fluoro-N-isopropyl-N-methyl-2-((4-(7-((2-oxo-2,3-dihydro-1H-benzo[d]imidazol-5-yl)methyl)-2,7-diazaspiro[4.4]nonan-2-yl)pyrimidin-5-yl)oxy)benzamide]
> 7.00	> 7.00		CC(C)n1nccc1-c1cc(F)ccc1Oc1cncnc1N1CCC2(CCN(Cc3ccc4[nH]c(=O)[nH]c4c3)C2)C1 (single isomer, unassigned) [Example 197A, 5-((7-(5-(4-fluoro-2-(1-isopropyl-1H-pyrazol-5-yl)phenoxy)pyrimidin-4-yl)-2,7-diazaspiro[4.4]nonan-2-yl)methyl)-1,3-dihydro-2H-benzo[d]imidazol-2-one]
> 7.00		> 7.00	CC(C)n1nccc1-c1cc(F)ccc1Oc1cncnc1N1CCC2(CCN(Cc3ccc4[nH]c(=O)[nH]c4c3)C2)C1 (single isomer, unassigned) [Example 197B, 5-((7-(5-(4-fluoro-2-(1-isopropyl-1H-pyrazol-5-yl)phenoxy)pyrimidin-4-yl)-2,7-diazaspiro[4.4]nonan-2-yl)methyl)-1,3-dihydro-2H-benzo[d]imidazol-2-one]
> 7.00	6.00 to 7.00		CC(C)n1nccc1-c1cc(F)ccc1Oc1cncnc1N1CCC2(CCN(C(=O)C(N)C3CCCCC3)C2)C1 (single isomer, unassigned) [Example 206A, 2-amino-2-cyclohexyl-1-(7-(5-(4-fluoro-2-(1-isopropyl-1H-pyrazol-5-yl)phenoxy)pyrimidin-4-yl)-2,7-diazaspiro[4.4]nonan-2-yl)ethanone]
> 7.00	6.00 to 7.00		CC(C)N(C(=O)c1cc(F)ccc1Nc1cncnc1N1CCC2(CC1)CN(C1CCC(NS(C)(=O)=O)CC1)C2)C(C)C (single isomer, unassigned) [Example 248A, 5-fluoro-N,N-diisopropyl-2-((4-(2-(4-(methylsulfonamido)cyclohexyl)-2,7-diazaspiro[3.5]nonan-7-yl)pyrimidin-5-yl)amino) benzamide]
> 7.00		6.00 to 7.00	CC(C)N(C(=O)c1cc(F)ccc1Nc1cncnc1N1CCC2(CC1)CN(C1CCC(NS(C)(=O)=O)CC1)C2)C(C)C (single isomer, unassigned) [Example 248B, 5-fluoro-N,N-diisopropyl-2-((4-(2-(4-(methylsulfonamido)cyclohexyl)-2,7-diazaspiro[3.5]nonan-7-yl)pyrimidin-5-yl)amino) benzamide]
> 7.00	≤ 6.00		N#Cc1ccc(-c2cc(F)ccc2Oc2cncnc2N2CCC3(CCC(N)(Cc4ccccc4)C3)C2)c(C2CC2)c1 (single isomer, unassigned) [Example 250B, 2′-((4-(7-amino-7-benzyl-2-azaspiro[4.4]nonan-2-yl)pyrimidin-5-yl)oxy)-2-cyclopropyl-5′-fluoro-[1,1′-biphenyl]-4-carbonitrile]
> 7.00	> 7.00		CCN(C(=O)c1cc(F)ccc1Oc1cncnc1N1CCC2(CCN(Cc3ccc4c(c3)[nH]c(=O)n4CCO)C2)C1)C(C)C (stereo not shown) [Example 4, N-ethyl-5-fluoro-2-((4-(7-((1-(2-hydroxyethyl)-2-oxo-2,3-dihydro-1H-benzo[d]imidazol-5-yl)methyl)-2,7-diazaspiro[4.4]nonan-2-yl)pyrimidin-5-yl)oxy)-N-isopropylbenzamide]
> 7.00	> 7.00		CC(C)N(CCO)C(=O)c1cc(F)ccc1Oc1cncnc1N1CCC2(CCN(Cc3ccc4[nH]c(=O)[nH]c4c3)C2)C1 (stereo not shown) [Example 5, 5-fluoro-N-(2-hydroxyethyl)-N-isopropyl-2-((4-(7-((2-oxo-2,3-dihydro-1H-benzo[d]imidazol-5-yl)methyl)-2,7-diazaspiro[4.4]nonan-2-yl)pyrimidin-5-yl)oxy)benzamide]
> 7.00	> 7.00		CC(C)N(C(=O)c1cc(F)ccc1Oc1cncnc1N1CC2(CCN(C[C@H]3CC[C@@H](NS(C)(=O)=O)CC3)CC2)C1)C(C)C [Example 6B, 5-fluoro-N,N-diisopropyl-2-((4-(7-(((1s,4s)-4-(methylsulfonamido)cyclohexyl)methyl)-2,7-diazaspiro[3.5]nonan-2-yl)pyrimidin-5-yl)oxy)benzamide]
> 7.00	6.00 to 7.00		NC(c1cc(F)ccc1Oc1cncnc1N1CCC2(CCN(Cc3ccc4[nH]c(=O)[nH]c4c3)C2)C1)C1CCCC1 (stereo not shown) [Example 7, 5-((7-(5-(2-(amino(cyclopentyl)methyl)-4-fluorophenoxy)pyrimidin-4-yl)-2,7-diazaspiro[4.4]nonan-2-yl)methyl)-1,3-dihydro-2H-benzo[d]imidazol-2-one]
> 7.00	> 7.00		CN(C)C(c1cc(F)ccc1Oc1cncnc1N1CCC2(CCN(Cc3ccc4[nH]c(=O)[nH]c4c3)C2)C1)C1CCCC1 (stereo not shown) [Example 8, 5-((7-(5-(2-(cyclopentyl(dimethylamino)methyl)-4-fluorophenoxy)pyrimidin-4-yl)-2,7-diazaspiro[4.4]nonan-2-yl)methyl)-1,3-dihydro-2H-benzo[d]imidazol-2-one]
> 7.00	≤ 6.00		CC(=O)NC(c1cc(F)ccc1Oc1cncnc1N1CCC2(CCN(Cc3ccc4[nH]c(=O)[nH]c4c3)C2)C1)C1CCCC1 (stereo not shown) [Example 9, N-(cyclopentyl(5-fluoro-2-((4-(7-((2-oxo-2,3-dihydro-1H-benzo[d]imidazol-5-yl)methyl)-2,7-diazaspiro[4.4]nonan-2-yl)pyrimidin-5-yl)oxy)phenyl)methyl)acetamide]
> 7.00	≤ 6.00		CC(C)C(O)c1cc(F)ccc1Oc1cncnc1N1CCC2(CCN(Cc3ccc4c(c3)NC(=O)C4(C)C)C2)C1 (stereo not shown) [Example 10, 6-((7-(5-(4-fluoro-2-(1-hydroxy-2-methylpropyl)phenoxy)pyrimidin-4-yl)-2,7-diazaspiro[4.4]nonan-2-yl)methyl)-3,3-dimethylindolin-2-one]

Structure (SMILES)	pIC50 [1]	pEC50 ([2]; Homo sapiens, MV4-11, 72 h)	pEC50 ([2]; 72 h)
CC(C)N(C(=O)c1cc(F)ccc1Oc1cncnc1N1CC2(CCN(C[C@H]3CC[C@H](NS(C)(=O)=O)CC3)CC2)C1)C(C)C [Example 6A, 5-fluoro-N,N-diisopropyl-2-((4-(7-(((1r,4r)-4-(methylsulfonamido)cyclohexyl)methyl)-2,7-diazaspiro[3.5]nonan-2-yl)pyrimidin-5-yl)oxy)benzamide]	> 7.00	> 7.00	
